From the NIST ThermoML archive (doi:10.1021/je800251v)

Conditions: Liquid

CCOC(=O)CC [ethyl propanoate]
Conditions	mass density [kg/m3]
298.15 K, 100 kPa	884.3
298.15 K, 1000 kPa	884.8
298.15 K, 2000 kPa	885.7
298.15 K, 3000 kPa	886.6
298.15 K, 3340 kPa	886.9
298.15 K, 5000 kPa	888.7
298.15 K, 10000 kPa	892.9
298.15 K, 15000 kPa	896.9
298.15 K, 20000 kPa	900.7
298.15 K, 25000 kPa	904.4
298.15 K, 30000 kPa	908.9
298.15 K, 35000 kPa	913.6
303.15 K, 100 kPa	878.5
303.15 K, 1000 kPa	879
303.15 K, 2000 kPa	880
303.15 K, 3000 kPa	880.9
303.15 K, 3340 kPa	881.2
303.15 K, 5000 kPa	883
303.15 K, 10000 kPa	887.4
303.15 K, 15000 kPa	891.6
303.15 K, 20000 kPa	895.6
303.15 K, 25000 kPa	899.4
303.15 K, 30000 kPa	904
303.15 K, 35000 kPa	908.9
308.15 K, 100 kPa	872.7
308.15 K, 1000 kPa	873.2
308.15 K, 2000 kPa	874.2
308.15 K, 3000 kPa	875.2
308.15 K, 3340 kPa	875.5
308.15 K, 5000 kPa	877.4
308.15 K, 10000 kPa	882
308.15 K, 15000 kPa	886.3
308.15 K, 20000 kPa	890.4
308.15 K, 25000 kPa	894.3
308.15 K, 30000 kPa	899.2
308.15 K, 35000 kPa	904.2
313.15 K, 100 kPa	866.8
313.15 K, 1000 kPa	867.4
313.15 K, 2000 kPa	868.4
313.15 K, 3000 kPa	869.4
313.15 K, 3340 kPa	869.8
313.15 K, 5000 kPa	871.7
313.15 K, 10000 kPa	876.5
313.15 K, 15000 kPa	880.9
313.15 K, 20000 kPa	885.1
313.15 K, 25000 kPa	889.3
313.15 K, 30000 kPa	894.4
313.15 K, 35000 kPa	899.5
318.15 K, 100 kPa	860.9
318.15 K, 1000 kPa	861.5
318.15 K, 2000 kPa	862.6
318.15 K, 3000 kPa	863.7
318.15 K, 3340 kPa	864.1
318.15 K, 5000 kPa	866.1
318.15 K, 10000 kPa	871
318.15 K, 15000 kPa	875.6
318.15 K, 20000 kPa	880
318.15 K, 25000 kPa	884.1
318.15 K, 30000 kPa	889.1
318.15 K, 35000 kPa	894.3
323.15 K, 100 kPa	854.9
323.15 K, 1000 kPa	856
323.15 K, 2000 kPa	857.1
323.15 K, 3000 kPa	858.1
323.15 K, 3340 kPa	858.4
323.15 K, 5000 kPa	860.3
323.15 K, 10000 kPa	865.4
323.15 K, 15000 kPa	870.2
323.15 K, 20000 kPa	874.7
323.15 K, 25000 kPa	879.1
323.15 K, 30000 kPa	884.3
323.15 K, 35000 kPa	889.7
328.15 K, 100 kPa	849.2
328.15 K, 1000 kPa	850.2
328.15 K, 2000 kPa	851.3
328.15 K, 3000 kPa	852.5
328.15 K, 3340 kPa	852.9
328.15 K, 5000 kPa	854.7
328.15 K, 10000 kPa	860
328.15 K, 15000 kPa	865
328.15 K, 20000 kPa	869.6
328.15 K, 25000 kPa	874
328.15 K, 30000 kPa	879.4
328.15 K, 35000 kPa	884.9
333.15 K, 100 kPa	843.1
333.15 K, 1000 kPa	844.2
333.15 K, 2000 kPa	845.4
333.15 K, 3000 kPa	846.6
333.15 K, 3340 kPa	847
333.15 K, 5000 kPa	849
333.15 K, 10000 kPa	854.6
333.15 K, 15000 kPa	859.7
333.15 K, 20000 kPa	864.5
333.15 K, 25000 kPa	869.2
333.15 K, 30000 kPa	874.8
333.15 K, 35000 kPa	880.6
338.15 K, 100 kPa	836.9
338.15 K, 1000 kPa	838.2
338.15 K, 2000 kPa	839.5
338.15 K, 3000 kPa	840.7
338.15 K, 3340 kPa	841.1
338.15 K, 5000 kPa	843.1
338.15 K, 10000 kPa	848.8
338.15 K, 15000 kPa	854.4
338.15 K, 20000 kPa	859.4
338.15 K, 25000 kPa	863.6
338.15 K, 30000 kPa	869.9
338.15 K, 35000 kPa	875.8
343.15 K, 100 kPa	831.1
343.15 K, 1000 kPa	832.2
343.15 K, 2000 kPa	833.5
343.15 K, 3000 kPa	834.8
343.15 K, 3340 kPa	835.2
343.15 K, 5000 kPa	837.4
343.15 K, 10000 kPa	843.4
343.15 K, 15000 kPa	848.9
343.15 K, 20000 kPa	854
343.15 K, 25000 kPa	859.1
343.15 K, 30000 kPa	865
343.15 K, 35000 kPa	871
348.15 K, 100 kPa	824.9
348.15 K, 1000 kPa	826
348.15 K, 2000 kPa	827.4
348.15 K, 3000 kPa	828.8
348.15 K, 3340 kPa	829.3
348.15 K, 5000 kPa	831.5
348.15 K, 10000 kPa	837.7
348.15 K, 15000 kPa	843.4
348.15 K, 20000 kPa	848.8
348.15 K, 25000 kPa	854
348.15 K, 30000 kPa	860.1
348.15 K, 35000 kPa	866.3
353.15 K, 100 kPa	818.7
353.15 K, 1000 kPa	819.9
353.15 K, 2000 kPa	821.3
353.15 K, 3000 kPa	822.7
353.15 K, 3340 kPa	823.2
353.15 K, 5000 kPa	825.6
353.15 K, 10000 kPa	832.1
353.15 K, 15000 kPa	838
353.15 K, 20000 kPa	843.5
353.15 K, 25000 kPa	848.9
353.15 K, 30000 kPa	855.3
353.15 K, 35000 kPa	861.6
363.15 K, 100 kPa	803.5
363.15 K, 1000 kPa	805.1
363.15 K, 2000 kPa	806.9
363.15 K, 3000 kPa	808.7
363.15 K, 3340 kPa	809.3
363.15 K, 5000 kPa	812
363.15 K, 10000 kPa	819.6
363.15 K, 15000 kPa	826.5
363.15 K, 20000 kPa	833
363.15 K, 25000 kPa	839.1
363.15 K, 30000 kPa	844.8
363.15 K, 35000 kPa	850.2
373.15 K, 100 kPa	790.9
373.15 K, 1000 kPa	792.6
373.15 K, 2000 kPa	794.5
373.15 K, 3000 kPa	796.4
373.15 K, 3340 kPa	797.1
373.15 K, 5000 kPa	800
373.15 K, 10000 kPa	808.2
373.15 K, 15000 kPa	815.6
373.15 K, 20000 kPa	822.5
373.15 K, 25000 kPa	829
373.15 K, 30000 kPa	834.9
373.15 K, 35000 kPa	840.6
383.15 K, 1000 kPa	780
383.15 K, 2000 kPa	782.1
383.15 K, 3000 kPa	784.1
383.15 K, 3340 kPa	784.8
383.15 K, 5000 kPa	787.9
383.15 K, 10000 kPa	796.6
383.15 K, 15000 kPa	804.6
383.15 K, 20000 kPa	811.9
383.15 K, 25000 kPa	818.7
383.15 K, 30000 kPa	825
383.15 K, 35000 kPa	830.9
393.15 K, 1000 kPa	766.4
393.15 K, 2000 kPa	768.7
393.15 K, 3000 kPa	770.8
393.15 K, 3340 kPa	771.5
393.15 K, 5000 kPa	775
393.15 K, 10000 kPa	784.5
393.15 K, 15000 kPa	793.1
393.15 K, 20000 kPa	800.8
393.15 K, 25000 kPa	808
393.15 K, 30000 kPa	814.7
393.15 K, 35000 kPa	820.9
